We go through 15 compounds from patent US20240238424A1, “HETEROBIFUNCTIONAL COMPOUNDS AND METHODS OF TREATING DISEASE” (Halda Therapeutics OpCo, Inc., priority 2021, published 2024).

By GI50 is commonly meant the concentration giving 50% growth inhibition. For orientation: DC50 means the concentration giving 50% degradation.

SMILES strings stand for the structures.

For one assay, the system named is HeLa KRas G12C cells. Briefly: Cellular growth inhibition assay (CTG), HeLa KRas G12C cells. In kind it is cell-based. Conditions: Homo sapiens, CellTiter-Glo 2.0, day-5. As to the method: Cells were seeded in Poly-D-lysine-treated 384-well white plates, with 25 μL cell suspension at 250 cells/well for continuous treatments, and 1000 cells/well for washout treatments. Plates were spun at 300×g for 3 minutes, and cells were cultured at 37° C. with 5% CO2 in a humidified tissue culture incubator.
After 24 hours, the test compounds were diluted with cell culture medium in 96 deep well plates. DMSO was used as a negative control. A 25 μL aliquot of compound-containing medium was added in each well, at a final top concentration of 10 μM or 30 μM test compound, with 3-fold dilutions. For washout assays, after 4 hours, cell medium with compound was removed, and the cells were washed with 75p L fresh medium. Plates were then spun at 300×g for 3 minutes and replaced with 50 μL fresh medium in each well. Plates were then spun at 300×g for 3 minutes again and cultured at 37° C. with 5% CO2.
At day-0 and day-5 of compound treatments, cell viability was quantified with CellTiter-Glo 2.0 (Promega). After equilibrating cell plates at room temperature for 30 minutes, 25 μL CellTiter-Glo 2.0 reagent was dispensed into each well (on top of 50 μL of cell culture). Plates were mixed on a shaker for 2 minutes at 500 rpm, followed by a 10-minute incubation at room temperature. Luminescence readings were measured with an EnVision Plate Reader. Data was normalized to DMSO treated day-0 cell wells. A four-parameter non-linear regression curve fit was applied to dose-response data in Prism to determine the half maximal growth inhibitory concentration (GI50) of each compound.
In general terms: In ATP-based viability assays light output follows the ATP content of the culture.

In a further assay the target is T1, GSPT1 (Homo sapiens, UniProt P15170+Q96SW2).
T1 construct: host or cells: HEK293 LgBiT cell line
Briefly: GSPT1 HiBit degradation assay. In kind it is cell-based. Conditions: HEK293 LgBiT cells expressing GSPT1_HiBiT, luminescence after 6 hours. A digest of the protocol: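 HEK293 cells stably expressing LgBiT and GSPT1-HiBiT, seeded 18-24 h before dosing, were treated with titrated compound plus endurazine (0.5× final) at 37 °C. Luminescence loss after 6 h reflects GSPT1 degradation; DC50 is the concentration giving 50% degradation.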
On the technique in general: HiBiT is a short tag that completes a luciferase, so light tracks the accessible tagged protein.

T1 sequence (P15170 whole entry): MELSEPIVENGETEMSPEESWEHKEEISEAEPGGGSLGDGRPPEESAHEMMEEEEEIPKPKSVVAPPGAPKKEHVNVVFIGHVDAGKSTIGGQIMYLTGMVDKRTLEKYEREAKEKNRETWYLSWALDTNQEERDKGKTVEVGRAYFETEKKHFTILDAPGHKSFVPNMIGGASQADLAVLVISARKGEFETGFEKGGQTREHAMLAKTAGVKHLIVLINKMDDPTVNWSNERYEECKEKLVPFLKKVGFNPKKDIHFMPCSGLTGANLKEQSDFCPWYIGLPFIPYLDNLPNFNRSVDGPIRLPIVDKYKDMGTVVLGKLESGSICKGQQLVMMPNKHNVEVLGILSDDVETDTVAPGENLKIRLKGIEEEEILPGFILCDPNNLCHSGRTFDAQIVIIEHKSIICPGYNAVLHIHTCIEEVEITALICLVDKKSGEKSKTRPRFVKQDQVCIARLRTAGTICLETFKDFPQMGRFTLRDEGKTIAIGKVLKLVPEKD
T1 sequence (Q96SW2 whole entry): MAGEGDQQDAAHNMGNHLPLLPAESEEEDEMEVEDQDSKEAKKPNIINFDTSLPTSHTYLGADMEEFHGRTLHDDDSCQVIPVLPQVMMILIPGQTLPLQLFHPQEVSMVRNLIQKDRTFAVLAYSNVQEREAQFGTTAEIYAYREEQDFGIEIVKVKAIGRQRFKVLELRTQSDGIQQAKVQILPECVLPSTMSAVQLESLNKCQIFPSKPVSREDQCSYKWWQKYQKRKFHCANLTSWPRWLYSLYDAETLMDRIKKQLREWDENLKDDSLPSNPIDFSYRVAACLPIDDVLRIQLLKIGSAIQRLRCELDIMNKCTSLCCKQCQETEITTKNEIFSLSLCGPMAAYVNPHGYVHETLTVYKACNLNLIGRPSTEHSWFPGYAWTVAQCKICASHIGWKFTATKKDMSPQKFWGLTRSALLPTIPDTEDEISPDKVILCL
T1 sequence (Q16531 whole entry partner): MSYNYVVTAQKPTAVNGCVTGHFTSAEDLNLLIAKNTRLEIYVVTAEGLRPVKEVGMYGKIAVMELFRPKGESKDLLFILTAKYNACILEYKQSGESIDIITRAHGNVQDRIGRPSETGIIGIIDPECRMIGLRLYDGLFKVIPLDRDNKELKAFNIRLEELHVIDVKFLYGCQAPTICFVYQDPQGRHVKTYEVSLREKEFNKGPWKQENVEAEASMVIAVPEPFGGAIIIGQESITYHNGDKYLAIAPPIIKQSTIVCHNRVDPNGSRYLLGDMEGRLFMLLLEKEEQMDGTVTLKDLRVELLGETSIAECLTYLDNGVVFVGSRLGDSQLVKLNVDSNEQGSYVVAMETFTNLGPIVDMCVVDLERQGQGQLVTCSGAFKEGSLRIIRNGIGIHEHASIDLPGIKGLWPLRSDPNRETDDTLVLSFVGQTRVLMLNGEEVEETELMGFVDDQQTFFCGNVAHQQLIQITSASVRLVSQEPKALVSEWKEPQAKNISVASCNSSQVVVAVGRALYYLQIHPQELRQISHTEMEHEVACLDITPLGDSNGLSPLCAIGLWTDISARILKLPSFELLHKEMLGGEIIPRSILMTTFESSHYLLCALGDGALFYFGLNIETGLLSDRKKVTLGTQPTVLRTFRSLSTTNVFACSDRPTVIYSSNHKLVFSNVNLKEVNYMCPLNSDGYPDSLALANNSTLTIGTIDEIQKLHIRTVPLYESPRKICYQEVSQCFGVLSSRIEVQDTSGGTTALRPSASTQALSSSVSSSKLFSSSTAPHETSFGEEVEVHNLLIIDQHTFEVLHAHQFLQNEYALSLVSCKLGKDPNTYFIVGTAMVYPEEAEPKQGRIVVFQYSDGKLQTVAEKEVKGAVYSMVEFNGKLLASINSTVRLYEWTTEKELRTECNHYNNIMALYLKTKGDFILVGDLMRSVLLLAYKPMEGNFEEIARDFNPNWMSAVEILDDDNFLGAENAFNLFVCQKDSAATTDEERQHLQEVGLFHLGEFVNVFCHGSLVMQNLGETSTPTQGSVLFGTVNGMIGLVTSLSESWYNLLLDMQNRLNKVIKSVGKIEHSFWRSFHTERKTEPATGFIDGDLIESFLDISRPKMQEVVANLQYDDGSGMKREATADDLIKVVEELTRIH

As to `C=CC(=O)N1CCN(c2nc(NCCOCCOCCOCCOCCOCCOCCOCCOCCc3cc(Cl)cc(NC(=O)NCc4ccc5c(c4)CN(C4CCC(=O)NC4=O)C5=O)c3)nc3c(F)c(-c4cc(O)cc5ccccc45)c(Cl)cc23)CC1` (stereo not drawn) [Compound I-15, 1-[3-chloro-5-[2-[2-[2-[2-[2-[2-[2-[2-[2-[[6-chloro-8-fluoro-7-(3-hydroxy-1-naphthyl)-4-(4-prop-2-enoylpiperazin-1-yl)quinazolin-2-yl]amino]ethoxy]ethoxy]ethoxy]ethoxy]ethoxy]ethoxy]ethoxy]ethoxy]ethyl]phenyl]-3-[[2-(2,6-dioxo-3-piperidyl)-1-oxo-isoindolin-5-yl]methyl]urea], the concentration for 50% growth inhibition (GI50) in the assay on HeLa KRas G12C cells is > 10 µM. Moreover, on GSPT1 (Table 3), the half-maximal degradation concentration (DC50) was > 10 µM.
Take `C=CC(=O)N1CCN(c2nc(NCCCCCCCCNc3cccc4c3CN(C3CCC(=O)NC3=O)C4=O)nc3c(F)c(-c4cc(O)cc5ccccc45)c(Cl)cc23)CC1` (stereo not drawn) [Compound I-6, 3-(4-((8-((4-(4-acryloylpiperazin-1-yl)-6-chloro-8-fluoro-7-(3-hydroxynaphthalen-1-yl)quinazolin-2-yl)amino)octyl)-amino)-1-oxoisoindolin-2-yl)piperidine-2,6-dione]: the GI50 in the assay on HeLa KRas G12C cells was > 10 µM. Further, the DC50 on GSPT1 (Table 3) was > 10 µM.
For the compound `C=C(F)C(=O)N1CCN(c2nc(OC[C@@H]3CCCN3CCOCCOCCOCCOCCOCCOCCOCCOCCOCCOCCOCCOCCOc3cc(Cl)cc(NC(=O)NCc4ccc5c(c4)CN(C4CCC(=O)NC4=O)C5=O)c3)nc3c2CCN(c2cccc4cccc(Cl)c24)C3)C[C@@H]1CC#N` (stereo partly drawn) [Compound I-42], the 50% growth inhibitory concentration (GI50) in the assay on HeLa KRas G12C cells is > 10 µM. Moreover, the DC50 at GSPT1 (Table 3) was > 10 µM.
`C=CC(=O)N1CCN(c2nc(NCCC(=O)N(C)CCOCCOCCOCCOCCOCCOCCc3cc(Cl)cc(NC(=O)NCc4ccc5c(c4)CN(C4CCC(=O)NC4=O)C5=O)c3)nc3c(F)c(-c4cc(O)cc5ccccc45)c(Cl)cc23)CC1` (stereo not drawn) [Compound I-17]: the 50% growth inhibitory concentration (GI50) in the assay on HeLa KRas G12C cells is > 10 µM. The half-maximal degradation concentration (DC50) at GSPT1 (Table 3) is > 10 µM.
Regarding `C=C(F)C(=O)N1CCN(c2nc(OC[C@@H]3CCCN3CCCOCCOCCOCCOCCOCCOCCOCCOCCOCCCCCc3ccc(Cl)cc3NC(=O)NCc3ccc4c(c3)CN(C3CCC(=O)NC3=O)C4=O)nc3c2CCN(c2cccc4cccc(Cl)c24)C3)C[C@@H]1CC#N` (stereo partly drawn) [Compound I-134], the GI50 with HeLa KRas G12C cells is 3 to 10 µM. The compound also showed a 50% degradation concentration (DC50) on GSPT1 (Table 3A) of 0.25 to 5 µM.
As for `C=C(F)C(=O)N1CCN(c2nc(OC[C@@H]3CCCN3CCOCCOCCOCCOCCOCCOCCOCCOCCOCCOCCOCCOCCc3cc(Cl)cc(NC(=O)NCc4ccc5c(c4)CN(C4CCC(=O)NC4=O)C5=O)c3)nc3c2CCN(c2cccc4cccc(Cl)c24)C3)C[C@@H]1CC#N` (stereo partly drawn) [Compound I-37], in the assay with HeLa KRas G12C cells, the concentration for 50% growth inhibition (GI50) is > 10 µM. This compound also gave a DC50 on GSPT1 (Table 3) of 0.25 to 5 µM.
Taken in the same sequence, the figures for `C=C(F)C(=O)N1CCN(c2nc(OC[C@H]3CCCN3CCOCCOCCOCCOCCOCCOCCOCCOCCOCCOCCCCCCCCc3cc(Cl)cc(NC(=O)NCc4ccc5c(c4)CN(C4CCC(=O)NC4=O)C5=O)c3)nc3c2CCN(c2cccc4cccc(Cl)c24)C3)C[C@H]1CC#N` (stereo partly drawn) [Compound I-39] were < 1 µM and < 0.25 µM.
`C=C(F)C(=O)N1CCN(c2nc(OC[C@@H]3CCCN3CCCOCCOCCOCCOCCOCCOCCOCCCCCc3cc(Cl)cc(NC(=O)NCc4ccc5c(c4)CN(C4CCC(=O)NC4=O)C5=O)c3)nc3c2CCN(c2cccc4cccc(Cl)c24)C3)C[C@@H]1CC#N` (stereo partly drawn) [Compound I-118]: the concentration for 50% growth inhibition (GI50) with HeLa KRas G12C cells lay in the range of 1 to 3 µM. This compound yielded a DC50 on GSPT1 (Table 3A) of 0.25 to 5 µM.
For `C=C(F)C(=O)N1CCN(c2nc(OC[C@@H]3CCCN3CCOCCOCCOCCOCCOCCOCCOCCOCCOCCOCCCCCCCCCCCCCCc3cc(Cl)cc(NC(=O)NCc4ccc5c(c4)CN(C4CCC(=O)NC4=O)C5=O)c3)nc3c2CCN(c2cccc4cccc(Cl)c24)C3)C[C@@H]1CC#N` (stereo partly drawn) [Compound I-52], the GI50 in the assay with HeLa KRas G12C cells is < 1 µM. In addition, on GSPT1 (Table 3), the DC50 was 0.25 to 5 µM.
Taken in the same sequence, the figures for `C=C(F)C(=O)N1CCN(c2nc(OC[C@@H]3CCCN3CCOCCOCCOCCOCCOCCOCCCCCCCCCCCCCCc3cc(Cl)cc(NC(=O)NCc4ccc5c(c4)CN(C4CCC(=O)NC4=O)C5=O)c3)nc3c2CCN(c2cccc4cccc(Cl)c24)C3)C[C@@H]1CC#N` (stereo partly drawn) [Compound I-50] were < 1 µM and 0.25 to 5 µM.
Taken in the same sequence, the figures for `C=C(F)C(=O)N1CCN(c2nc(OC[C@@H]3CCCN3CCCCCCCCc3cc(Cl)cc(NC(=O)NCc4ccc5c(c4)CN(C4CCC(=O)NC4=O)C5=O)c3)nc3c2CCN(c2cccc4cccc(Cl)c24)C3)C[C@@H]1CC#N` (stereo partly drawn) [Compound I-1, 1-[3-chloro-5-[8-[(2S)-2-[[7-(8-chloro-1-naphthyl)-4-[(3S)-3-(cyanomethyl)-4-(2-fluoroprop-2-enoyl)piperazin-1-yl]-6,8-dihydro-5H-pyrido[3,4-d]pyrimidin-2-yl]oxymethyl]pyrrolidin-1-yl]octyl]phenyl]-3-[[2-(2,6-dioxo-3-piperidyl)-1-oxo-isoindolin-5-yl]methyl]urea] were 1 to 3 µM and 0.25 to 5 µM.
Taken in the same sequence, the figures for `C=CC(=O)N1CCN(c2nc(NCCOCCOCCOCCOCCOCCOCCc3cc(Cl)cc(NC(=O)NCc4ccc5c(c4)CN(C4CCC(=O)NC4=O)C5=O)c3)nc3c(F)c(-c4cc(O)cc5ccccc45)c(Cl)cc23)CC1` (stereo not drawn) [Compound I-7, 1-[3-chloro-5-[2-[2-[2-[2-[2-[2-[2-[[6-chloro-8-fluoro-7-(3-hydroxy-1-naphthyl)-4-(4-prop-2-enoylpiperazin-1-yl)quinazolin-2-yl]amino]ethoxy]ethoxy]ethoxy]ethoxy]ethoxy]ethoxy]ethyl]phenyl]-3-[[2-(2,6-dioxo-3-piperidyl)-1-oxo-isoindolin-5-yl]methyl]urea] were > 10 µM and 5 to 10 µM.
Regarding `C=C(F)C(=O)N1CCN(c2nc(OC[C@@H]3CCCN3CCOCCOCCOCCOCCCCCCCCCCCCCCc3cc(Cl)cc(NC(=O)NCc4ccc5c(c4)CN(C4CCC(=O)NC4=O)C5=O)c3)nc3c2CCN(c2cccc4cccc(Cl)c24)C3)C[C@@H]1CC#N` (stereo partly drawn) [Compound I-49], the concentration for 50% growth inhibition (GI50) with HeLa KRas G12C cells was > 10 µM. Besides, on GSPT1 (Table 3), the DC50 is 0.25 to 5 µM.
Taken in the same sequence, the figures for `C=CC(=O)N1CCN(c2nc(NCCCCCCCCc3cccc4c3CN(C3CCC(=O)NC3=O)C4=O)nc3c(F)c(-c4cc(O)cc5ccccc45)c(Cl)cc23)CC1` (stereo not drawn) [Compound I-8, 3-(4-(8-((4-(4-acryloylpiperazin-1-yl)-6-chloro-8-fluoro-7-(3-hydroxynaphthalen-1-yl)quinazolin-2-yl)amino)octyl)-1-oxoisoindolin-2-yl)piperidine-2,6-dione] were > 10 µM and > 10 µM.
In the same order, the values of `C=C(F)C(=O)N1CCN(c2nc(OC[C@@H]3CCCN3CCOCCOCCOCCOCCOCCOCCOCCOCCOc3cc(Cl)cc(NC(=O)NCc4ccc5c(c4)CN(C4CCC(=O)NC4=O)C5=O)c3)nc3c2CCN(c2cccc4cccc(Cl)c24)C3)C[C@@H]1CC#N` (stereo partly drawn) [Compound I-9, 1-[3-chloro-5-[2-[2-[2-[2-[2-[2-[2-[2-[2-[(2S)-2-[[7-(8-chloro-1-naphthyl)-4-[(3S)-3-(cyanomethyl)-4-(2-fluoroprop-2-enoyl)piperazin-1-yl]-6,8-dihydro-5H-pyrido[3,4-d]pyrimidin-2-yl]oxymethyl]pyrrolidin-1-yl]ethoxy]ethoxy]ethoxy]ethoxy]ethoxy]ethoxy]ethoxy]ethoxy]ethoxy]phenyl]-3-[[2-(2,6-dioxo-3-piperidyl)-1-oxo-isoindolin-5-yl]methyl]urea] are > 10 µM and > 10 µM.
